Assay results: patent US5081126A, “Quinolyl- and isoquinolyl-methoxyphenyl-dithioacetyl derivatives useful as antiinflammatory agents” (Fujisawa Pharmaceutical Co., Ltd., priority 1987, dated 1992)
Counter-ions that a name gives are not always drawn.

Test system: SRS-A (Slow Reacting Substance of Anaphylaxis) synthesis in rat polymorpholeukocyte (PMN)
Experiment: Inhibiting activity of SRS-A (Slow Reacting Substance of Anaphylaxis) synthesis in rat polymorpholeukocyte (PMN) using the calcium ionophore; i-LTC4 by radioimmunoassay
Format: cell-based
Conditions: 0.25 h, 10 μM A23187, 15 min at 37° C., i-LTC4 readout
Method: Test : Inhibiting activity of SRS-A (Slow Reacting Substance of Anaphylaxis) synthesis in rat polymorpholeukocyte (PMN) of using the calcium ionophore
Preparation of PMN from rat
Male Spraque-Dawley rats weighing 250-300 g were anesthetized with ether and each was injected intraperitoneally with 20 ml of 0.1% glycogen (from Oyster). After 20 hours the rats were sacrificed and PMN were recovered in rinse of the peritoneal cavity with 10 ml Dulbeccos PBS (components in G/L : CaCl 0.1, KH2 PO4 0.2, MgCl2.6H2 O 0.1, NaCl 8.0, Na2 HPO4.7H2 O 2.16; pH 7.4). These rinses were filtered through nylon wool filter and centrifuged for 5 min at 1000 xg. The pellet was suspended in Dulbeccos PBS and centrifuged for 5 min at 1000 xg. The pellet was resuspended in Dulbeccos PBS and adjusted the cell concentration to 10^7 cells/ml with Dulbeccos PBS.
Samples were dissolved in ethanol and dispersed in Dulbeccos PBS to give a concentration of 10^-8 to 10^-3 M. Antibiotic A23187; calcium ionophor (Dehring Diagnostics; (hereinafter referred to A23187) in DMSO (10mM) was diluted with Dulbeccos PBS tc give the concentration of 1 mM. Aliquots of the cell suspension (1×10^7 cells/ml, 0.98 ml) were equilibrated for 30 min at 37° C. Solution of sample(10 ul) was added and incubated for 15 min at 37° C. before the addition of 10 μl of A23187 solution. Thus the final incubation volume of 1 ml contained approximately 1×10^7 cells, 10^-10 to […] M samples and 10 μM A23187. Incubation with A23187 were continued for 15 min at 37° C. The reactions were terminated by setting the assay tubes in ice bath to chill as rapidly as possible to 4° C. The test tubes were centrifuged at 1500 xg for 5 min at 4° C. and decanted the supernatants into the tubes and kept cold prior to assaying.
Determination of immunoreactive LTC4 (i-LTC4)
The concentration of i-LTC4 in the cell-free supernatants from the incubations were determined by specific radioimmunoassay. The mean values of i-LTC4 (these incubations were carried out in duplicate) of each sample were calculated and the effect of samples on the synthesis of the leukotrienes was presented as a percentage of the value in the absence of samples.

Structure (SMILES)	IC50
CCCSC(SCCC)c1cccc(OCc2nc3ccccc3s2)c1 [Example 1, 2-[[[3-bis(propylthio)methyl]phenoxy]methyl]benzothiazole]	300 nM
CCCSC(SCCC)c1cccc(OCc2ccccn2)c1 [Example 2, 2-[[[3-Bis(propylthio)methyl]phenoxy]methyl]pyridine hydrochloride]	520 nM
CCCSC(SCCC)c1cccc(OCc2ccc3ccccc3n2)c1 [Example 3, 2-[[[3-bis(propylthio)methyl]phenoxy]methyl]quinoline hydrochloride]	39 nM
CCCSC(SCCC)c1ccc(OCc2ccc3ccccc3n2)cc1 [Example 5, 2-[[[4-Bis(propylthio)methyl]phenoxy]methyl]quinoline hydrochloride]	110 nM
CCSC(SCC)c1cccc(OCc2ccc3ccccc3n2)c1 [Example 6, 2-[[[3-Bis(ethylthio)methyl]phenoxy]methyl]quinoline hydrochloride]	130 nM
CCCCSC(SCCCC)c1cccc(OCc2ccc3ccccc3n2)c1 [Example 7, 2-[[[3-Bis(butylthio)methyl]phenoxy]methyl]quinoline hydrochloride]	160 nM
CCCCCSC(SCCCCC)c1cccc(OCc2ccc3ccccc3n2)c1 [Example 8, 2-[[[3-Bis(pentylthio)methyl]phenoxy]methyl]quinoline hydrochloride]	330 nM
CC(C)SC(SC(C)C)c1cccc(OCc2ccc3ccccc3n2)c1 [Example 9, 2-[[[3-Bis(isopropylthio)methyl]phenoxy]methyl]quinoline hydrochloride]	100 nM
c1ccc(SC(Sc2ccccc2)c2cccc(OCc3ccc4ccccc4n3)c2)cc1 [Example 10, 2-[[[3-Bis(phenylthio)methyl]phenoxy]methyl]quinoline hydrochloride]	1100 nM
c1ccc(CSC(SCc2ccccc2)c2cccc(OCc3ccc4ccccc4n3)c2)cc1 [Example 11, 2-[[[3-Bis(benzylthio)methyl]phenoxy]methyl]quinoline]	1400 nM
CC(C)SC(SC(C)C)c1cccc(OCc2nc3ccccc3s2)c1 [Example 16, 2-[[[3-Bis(isopropylthio)methyl]phenoxy]methyl]benzothiazole]	110 nM
CCCSC(SCCC)c1cccc(OCc2ncc3ccccc3n2)c1 [Example 22, 2-[[[3-Bis(propylthio)methyl]phenoxy]methyl]quinazoline hydrochloride]	850 nM
